According to patent publication US7893068B2, “Physiologically active substances” (Mercian Corporation, priority 2002, dated 2011):

Key:
[1] = test system: VEGF promoter; assay: VEGF transcription-suppressing activity (VEGF promoter-PLAP reporter, U251/1-8 cells, hypoxia); assay type: cell-based; details: Homo sapiens, U-251, 18 h, read-out: VEGF transcription-suppressing activities (IC50: nM)
Description: In order to prepare reporter system reflecting transcription from VEGF promoter, VEGF promoter sequence was cloned, and inserted in secretory alkaline phosphatase (PLAP) vector to construct reporter vector.
In order to obtain the promoter region of human VEGF, VEGF genomic DNA was cloned from phage library. PCR primers having the sequences described in Sequence Numbers 1 and 2 were designed based on VEGF cDNA (GenBank accession number: X62568) and a fragment having about 340 bp was obtained by carrying out PCR. Human genomic phage library (Human genomic library, Clontech Co.) was screened using this as a probe to obtain VEGF genomic DNA. The DNA was digested by EcoRI, and the resultant fragments were inserted in the EcoRI site of pUC18. Finally, pUC18-VEGFA containing about 5.4 kb of VEGF 5′ flanking region was obtained. The pUC18-VEGFA was digested by KpnI/NheI, VEGF promoter region of about 2.3 kb obtained was inserted in the multi cloning site KpnI/NheI of secretory alkaline phosphatase (PLAP) vector (Goto et al, Mol. Pharmacol., 49, 860-873, 1996), and thus, VEGF-PLAP vector was constructed.
The above-mentioned VEGF-PLAP vector was transfected in the U251 cell cultured in the DULBECCO-modified eagle medium (DMEM; manufactured by SIGMA Co., Ltd.) containing 10% fetal calf serum, and the cells were cultured in the presence of 1 mg/mL G418 (Merck Co.) to establish G418 resistant stable clone (U251/1-8 cell).
It was confirmed that U251/1-8 cell secreted PLAP under hypoxic condition (2% O2 incubator) in the same manner as in the report (Cell. Mol. Biol. Res. 40, 35-39, 1994) and was a reporter system reflecting the transcription from VEGF promoter. The screening of the compound suppressing VEGF production which was induced by hypoxic stimulation was carried out below using the clone.
In order to remove the influence of alkaline phosphates in serum, U251/1-8 cells were rinsed twice with the adequate amount of PBS (Phosphate buffered saline), diluted in the DMEM medium containing 10% of serum in which alkaline phosphates was inactivated by the treatment of 65° C. for 20 min., and dispensed in 96-well plates by 4×10^4 cells/180 μL.
After culturing at 37° C. overnight in a CO2 incubator (5% CO2), 20 μL of the above-mentioned incubation solution containing the test compound diluted with 3-fold succession was added, and then they were incubated in a hypoxic (2% […]) incubator for 18 hours. With respect to the PLAP activity in the culture supernatants, 10 μL of the supernatants was added to 50 μL of 0.28 M Na2CO3—NaHCO3 buffer solution (pH 10.0, 8.0 mM MgSO4), and finally 50 μL of alkaline phosphatase substrate (LUMISTEIN, Genomescience Co.) was added. After reacting for one hour, the alkaline phosphatase activity of the PLAP was measured by detecting the chemical luminescence by a micro plate reader (Perkin-Elmer Co.). The PLAP activity under normoxia was set as 0%, the PLAP activity of cell which was treated under hypoxia was set as 100%, and the concentration suppressing the PLAP activity by 50% was set as the IC50 value of PLAP. The IC50 values of 11107D derivatives shown in Examples were measured, and the IC50 values of representative 11107D derivatives are shown in Table 1.

[2] = Body weight loss (acute toxicity) in the WiDr tumor model; assay type: in vivo, nude mice; details: intravenous 5 consecutive days, body weight relative to Day 1
Description: (§1) In order to study solid tumor growth inhibitory activities of the compounds of the formula (I) in vivo, WiDr human colon cancer cells were implanted subcutaneously into the flanks of nude mice. […]. The animals were grouped so that the average of the volumes of the respective groups became uniform, when it reached about 100 mm^3. Control group was made up of 10 mice and 11107D-administering groups were made up of 5 mice. The derivatives were administered for the administering groups for 5 consecutive days by intravenous injection so as to be any of 0.625 mg, 1.25 mg, 2.5 mg, 5 mg and 10 mg/kg/day, and a vehicle was administered to the control group. The tumor volumes on Day 15 were measured, and relative tumor volume ratios (T/C %) were determined setting the tumor volume of the control group as 100%. The body weights on Day 1, Day 5, Day 8, Day 12 and Day 15 (or 16) were measured, and relative body weight variations were determined setting the body weight on Day 1 as 100%. The relative body weight ratios on the day where the body weight reached the minimum were defined as the minimum relative weight ratios and are shown in Table 3.

[3] = test system: WiDr human colon cancer cells; assay: Growth inhibitory activities on WiDr human colon cancer cells (MTT); assay type: cell-based; details: 72 h, three days incubation
Description: WiDr human colon cancer cells cultured in DULBECCO-modified eagle medium (DMEM; manufactured by SIGMA Co., Ltd.) containing 10% fetal calf serum, penicillin (100 unit/mL) and streptomycin (100 μg/mL) were dispensed in 96-well plates by 2×10^3 cells/well. After culturing overnight in a CO2 incubator, 20 μL of the above-mentioned incubation solution containing the test compound diluted with 3-fold succession was added, followed by incubation. After three days, 50 μL of 3.3 mg/mL MTT solution was added, followed by culturing for further one hour. Then, formazan formed by the reduction by the action of living cells was extracted with 100 μL of DMSO, the absorbance (A540/A660) was determined and was set as the index of the number of living cells.
The concentrations of the compounds of the formula (I) at which the growth of WiDr human colon cancer cells are inhibited 50% were determined.

[4] = test system: WiDr human colon cancer cells; assay: Solid tumor growth inhibitory activities, WiDr human colon tumor model in nude mice; assay type: in vivo; details: Mus musculus, iv, 360 h, read-out: Growth inhibitory activities in the WiDr human solid tumor model (T/C %)
Description: as §1

[5] = Stability in an aqueous solution (HPLC residual ratio); details: for Peak area (mAU × sec) after 24 hours / The residual ratios (%): Britton-Robinson's buffer pH 7, 25° C., 24 hours; for Peak area (mAU × sec) initial: Britton-Robinson's buffer pH 7, before incubation
Description: The compounds of the formula (I) were dissolved in DMSO in concentrations of 10 to 20 mM, and these were diluted about 500 folds with Britton-Robinson's buffer solution of pH 7. Each of the solutions as sample solutions was incubated at 25° C. for 24 hours.
The sample solutions were analyzed by high performance liquid chromatography before and after incubation, and the residual ratios of the tested substances in the sample solutions after incubation were determined from the peak areas of the obtained chromatograms.

SMILES | IC50 [1] | the minimum relative weight ratios ([2]; Dose 5.0 mg/kg) | IC50 [3] | response vs control in vivo at 5 mg/kg [4] | Peak area (mAU × sec) after 24 hours [5] | The residual ratios (%) [5] | Peak area (mAU × sec) initial [5] | the minimum relative weight ratios ([2]; Dose 2.5 mg/kg) | response vs control in vivo at 2.5 mg/kg [4] | the minimum relative weight ratios ([2]; Dose 1.25 mg/kg) | response vs control in vivo at 1.25 mg/kg [4]
CCC(O)C(C)C1OC1CC(C)(O)/C=C/C=C(\C)C1OC(=O)CC(O)CCC(C)(O)C(OC(=O)N2CCCN(C)CC2)/C=C/C1C (stereo not drawn) [Compound 9, (8E,12E,14E)-3,6,16,21-Tetrahydroxy-6,10,12,16,20-pentamethyl-7-((4-methylhomopiperazin-1-yl)carbonyl)oxy-18,19-epoxytricosa-8,12,14-trien-11-olide] | 12.9 nM | 0.86 | 5.5 nM | 10% | 5476 mAU × sec | 96.2% | 5690 mAU × sec | – | – | – | –
CCC(O)C(C)C1OC1CC(C)(O)/C=C/C=C(\C)C1OC(=O)CC(O)CCC(C)(O)C(OC(=O)N2CCC(N3CCCCC3)CC2)/C=C/C1C (stereo not drawn) [Compound 22, (8E,12E,14E)-3,6,16,21-Tetrahydroxy-6,10,12,16,20-pentamethyl-7-((4-(piperidin-1-yl)piperidin-1-yl)carbonyl)oxy-18,19-epoxytricosa-8,12,14-trien-11-olide] | 25.6 nM | 0.74 | 14.6 nM | 39% | 4514 mAU × sec | 95.8% | 4713 mAU × sec | – | – | – | –
CCCCN1CCN(C(=O)OC2/C=C/C(C)C(/C(C)=C/C=C/C(C)(O)CC3OC3C(C)C(O)CC)OC(=O)CC(O)CCC2(C)O)CC1 (stereo not drawn) [Compound 16, (8E,12E,14E)-7-((4-Butylpiperazin-1-yl)carbonyl)oxy-3,6,16,21-tetrahydroxy-6,10,12,16,20-pentamethyl-18,19-epoxytricosa-8,12,14-trien-11-olide] | 3.1 nM | – | 2 nM | – | – | – | – | 0.90 | 28% | – | –
CCC(O)C(C)C1OC1CC(C)(O)/C=C/C=C(\C)C1OC(=O)CC(O)CCC(C)(O)C(OC(=O)N(C)CCN(CC)CC)/C=C/C1C (stereo not drawn) [Compound 75, (8E,12E,14E)-7-(N-(2-(N′,N′-Diethylamino)ethyl)-N-methylcarbamoyloxy)-3,6,16,21-tetrahydroxy-6,10,12,16,20-pentamethyl-18,19-epoxytricosa-8,12,14-trien-11-olide] | 9.1 nM | 0.82 | 4.1 nM | 17% | 2478 mAU × sec | 95.5% | 2594 mAU × sec | – | – | – | –
CCC(O)C(C)C1OC1CC(C)(O)/C=C/C=C(\C)C1OC(=O)CC(O)CCC(C)(O)C(OC(=O)N(C)CCN(C)C)/C=C/C1C (stereo not drawn) [Compound 6, (8E,12E,14E)-7-(N-(2-(N′,N′-Dimethylamino)ethyl)-N-methylcarbamoyloxy)-3,6,16,21-tetrahydroxy-6,10,12,16,20-pentamethyl-18,19-epoxytricosa-8,12,14-trien-11-olide] | 32 nM | – | 12.5 nM | – | – | – | – | – | – | 0.81 | 35%
CCC(O)C(C)C1OC1CC(C)(O)/C=C/C=C(\C)C1OC(=O)CC(O)CCC(C)(O)C(OC(=O)N2CCN(CC)CC2)/C=C/C1C (stereo not drawn) [Compound 21, (8E,12E,14E)-7-((4-Ethylpiperazin-1-yl)carbonyl)oxy-3,6,16,21-tetrahydroxy-6,10,12,16,20-pentamethyl-18,19-epoxytricosa-8,12,14-trien-11-olide] | 6.1 nM | – | 3.2 nM | – | – | – | – | 0.80 | 28% | – | –
CCC(O)C(C)C1OC1CC(C)(O)/C=C/C=C(\C)C1OC(=O)CC(O)CCC(C)(O)C(OC(=O)N2CCN(C(C)C)CC2)/C=C/C1C (stereo not drawn) [Compound 44, (8E,12E,14E)-3,6,16,21-Tetrahydroxy-7-((4-isopropylpiperazin-1-yl)carbonyl)oxy-6,10,12,16,20-pentamethyl-18,19-epoxytricosa-8,12,14-trien-11-olide] | 3.9 nM | 0.89 | 2.1 nM | 19% | 3820 mAU × sec | 94.8% | 4031 mAU × sec | – | – | – | –
CCC(O)C(C)C1OC1CC(C)(O)/C=C/C=C(\C)C1OC(=O)CC(O)CCC(C)(O)C(OC(=O)N2CCN(C3CCCCC3)CC2)/C=C/C1C (stereo not drawn) [Compound 26, (8E,12E,14E)-7-((4-Cyclohexylpiperazin-1-yl)carbonyl)oxy-3,6,16,21-tetrahydroxy-6,10,12,16,20-pentamethyl-18,19-epoxytricosa-8,12,14-trien-11-olide] | 2.8 nM | – | 1.6 nM | – | – | – | – | 0.93 | 42% | – | –
CCC(OC)C(C)C1OC1CC(C)(O)/C=C/C=C(\C)C1OC(=O)CC(O)CCC(C)(O)C(OC(=O)N2CCN(C)CC2)/C=C/C1C (stereo not drawn) [Compound 131, (8E,12E,14E)-3,6,16-Trihydroxy-21-methoxy-6,10,12,16,20-pentamethyl-7-((4-methylpiperazin-1-yl)carbonyl)oxy-18,19-epoxytricosa-8,12,14-trien-11-olide] | 1.7 nM | – | 0.7 nM | – | 157 mAU × sec | 93.2% | 168 mAU × sec | 0.83 | 28% | – | –
